Data as given in patent US20190091162A1, “POLYMER-LIPID HYBRID NANOPARTICLES OF CAPECITABINE UTILIZING MICROMIXING AND CAPECITABINE AMPHIPHILIC PROPERTIES” (Jingjie PTM BioLab (Hangzhou) Co., Ltd., priority 2017, published 2019).

Key:
[1] = unformulated CAP; cited from earlier work
[2] = Particle size by dynamic light scattering (DLS)

Size of the particles formed by CAP ([2]; CAP in DI water, DLS): 2-30 nm | Stability of CAP micelles ([2]; high concentrations of CAP in DI water, size and correlation function fluctuate): not very stable
SMILES: CCCCCOC(=O)Nc1nc(=O)n([C@@H]2O[C@H](C)[C@@H](O)[C@H]2O)cc1F [CAP, N4-pentyloxycarbonyl-5-deoxy-5-fluoro-cytidine]
Time within which the drug by itself is eliminated from the body [1]: 0.5 to 1 h
